18 molecules from patent publication US4650798A, “Antiarrhythmic 2,2-dialkyl-1-(aminoalkyl)-spiro[chroman-4,4'-imidazolidine]-2',5'-dione s” (priority 1984, dated 1987) can be followed below.

For data set [1], the system named is Chloroform-induced arrhythmia. Put plainly: Chloroform-induced arrhythmia (mice). The following applies: for minimal effective dose: Mus musculus, po, 1 h, read-out: Effective dose; for Lethal dose: peroral, mice. The method, then:
(1) Chloroform-induced arrhythmia (mice):
Ventricular arrhythmia was caused experimentally in mice by the following method.
The mice were placed in a device filled with chloroform gas. After expiring, the ventricular pulse was counted from a record of an electrocardiogram. The antiarrhythmic activity of the test compound was determined based on its effect of relieving tachycardia. […] The compounds were tested by administration by two routes, i.e. peroral and intravenous injection. […] As comparative standard medicines, quinidine, disopyramide and phenytoin were employed. This method is taught in the publication, J. Pharmacol. Exp. Ther. 160,22 (1968), by J. W. Lawson.

Data set [2] can be described thus: Acute toxicity (rats), peroral. As to conditions: rat, in vivo, po. From the text:
(3) Acute toxicity (rats):
The acute toxicity tests on rats (peroral administration) were effected using typical compounds of the present invention, i.e. 6-chloro-2,2-dimethyl-1'-[3-(4-hydroxypiperidino)propyl]spiro[chroman-4,4'-imidazolidine]-2',5'-dione (compound 1) and 2,2-dimethyl-6-fluoro-1'-[3-(4-hydroxypiperidino)propyl]-spiro[chroman-4,4'-imidazolidine]-2',5'-dione (compound 2).

In another data set the test system is myocardia. In words: Contraction of the myocardia. The following applies: dose several times as much as that required for the antiarrhythmic effects. From the text: This property is quite preferred when they are used as antiarrhythmic agents.

Molecules are shown by their SMILES.

For the molecule `CCN(CC)CCN1C(=O)NC2(CC(C)(C)Oc3ccc(F)cc32)C1=O` (stereo not shown), in data set [1], the minimal effective dose was determined as 12.5 mg/kg and the Lethal dose is listed as 200 mg/kg.
Take `CC1(C)CC2(NC(=O)N(CCCN3CCC(O)CC3)C2=O)c2cc(F)ccc2O1` (stereo not shown) [Compound 2, 2,2-dimethyl-6-fluoro-1'-[3-(4-hydroxypiperidino)propyl]-spiro[chroman-4,4'-imidazolidine]-2',5'-dione]: the 50% lethal dose (LD50) (in general, the dose expected to kill half of the subjects tested) was found to be 780 mg/kg in data set [2] (female rats) and 860 mg/kg in data set [2] (male rats).
In the case of `CC1(C)CC2(NC(=O)N(CCCN3CCC(c4ccccc4)CC3)C2=O)c2cc(F)ccc2O1` (stereo not shown), in data set [1], the minimal effective dose was found to be 50 mg/kg and the Lethal dose amounted to 200 mg/kg.
Consider `CCC1(CC)CC2(NC(=O)N(CCCN3CCC(O)CC3)C2=O)c2cc(F)ccc2O1` (stereo not shown), for which, in data set [1], the minimal effective dose was 25 mg/kg and the Lethal dose is given as 400 mg/kg.
Regarding `C=C[C@H]1C[N@@]2CC[C@H]1C[C@@H]2[C@@H](O)c1ccnc2ccc(OC)cc12` [quinidine], in the data set on myocardia, the “contraction power of the myocardia” value was “reduce the contraction power of the myocardia”.
For `CC(C)N(CCN1C(=O)NC2(CC(C)(C)Oc3ccc(F)cc32)C1=O)C(C)C` (stereo not shown), in data set [1], the minimal effective dose is 25 mg/kg and the Lethal dose was determined as 200 mg/kg.
For the molecule `CC1CC2(NC(=O)N(CCCN(C)C)C2=O)c2cc(Cl)ccc2O1` (stereo not shown), in data set [1], the minimal effective dose stood at 12.5 mg/kg and the Lethal dose was determined as 50 mg/kg.
As for `COC1CCN(CCCN2C(=O)NC3(CC(C)(C)Oc4ccc(F)cc43)C2=O)CC1` (stereo not shown), in data set [1], the minimal effective dose stood at 25 mg/kg and the Lethal dose is 400 mg/kg.
The corresponding values for `CC(C)N(CCC(C(N)=O)(c1ccccc1)c1ccccn1)C(C)C` (stereo not shown) [Disopyramide phosphate, reference compound] are 50 mg/kg and 600 mg/kg.
The corresponding values for `CC1(C)CC2(NC(=O)N(CCCN3CCC(O)CC3)C2=O)c2cc(Cl)ccc2O1` (stereo not shown) [drawing 12] are 25 mg/kg and 400 mg/kg.
The corresponding values for `CC1(C)CC2(NC(=O)N(CCCN3CCC(O)CC3)C2=O)c2cc(F)ccc2O1` (stereo not shown) [drawing 13] are 25 mg/kg and 400 mg/kg.
As for `CN(C)CCN1C(=O)NC2(CC(C)(C)Oc3ccc(F)cc32)C1=O` (stereo not shown), in data set [1], the minimal effective dose came to 50 mg/kg and the Lethal dose stood at 400 mg/kg.
In the same order, the values of `O=C1NC(=O)C(c2ccccc2)(c2ccccc2)N1` [Phenytoin sodium, reference compound] are 100 mg/kg and greater than 800 mg/kg.
Consider `CC1(C)CC2(NC(=O)N(CCCN3CCC(O)CC3)C2=O)c2cc(Cl)cc(Cl)c2O1` (stereo not shown), for which, in data set [1], the minimal effective dose is 12.5 mg/kg and the Lethal dose turned out to be 400 mg/kg.
The corresponding values for `C=CC1CN2CCC1CC2C(O)c1ccnc2ccc(OC)cc12` (stereo not shown) [Quinidine sulfonate, reference compound] are 200 mg/kg and 800 mg/kg.
In the case of `CC1(C)CC2(NC(=O)N(CCCN3CCC(O)CC3)C2=O)c2cc(Cl)ccc2O1` (stereo not shown) [Compound 1, 6-chloro-2,2-dimethyl-1'-[3-(4-hydroxypiperidino)propyl]spiro[chroman-4,4'-imidazolidine]-2',5'-dione], the results for the LD50 in data set [2] (female rats) and in data set [2] (male rats) were 858 mg/kg and 930 mg/kg, respectively.
Turning to `CC(C)N(CCC(C(N)=O)(c1ccccc1)c1ccccn1)C(C)C` (stereo not shown) [disopyramide], in the data set on myocardia, the “contraction power of the myocardia” value was “reduce the contraction power of the myocardia”.
As to `CCC1(CC)CC2(NC(=O)N(CCCN(C)C)C2=O)c2cc(Cl)ccc2O1` (stereo not shown), in data set [1], the minimal effective dose stood at 25 mg/kg and the Lethal dose came to 400 mg/kg.
